Source: ChEMBL document CHEMBL1130599, “Novel protein kinase C inhibitors: alpha-terthiophene derivatives” (Bioorg Med Chem Lett, 1998)

Test: Inhibition of protein kinase C(1:1mixture of PKC alpha & beta) expressed in Sf9 insect cells
Type: cell-based

| SMILES | IC50 [µM] |
| --- | --- |
| O=Cc1ccc(-c2ccc(-c3ccc(CO)s3)s2)s1 | 0.7 |
| O=Cc1ccc(-c2cccs2)s1 | 700 |
| OCc1ccc(-c2ccc(-c3cccs3)s2)s1 | 4 |
| O=Cc1cccs1 [2-THIOPHENENECARBOXALDEHYDE] | > 4000 |
| N#Cc1ccc(-c2ccc(-c3cccs3)s2)s1 | 2 |
| CN1CCN(CCCN2c3ccccc3Sc3ccc(C(F)(F)F)cc32)CC1 [TRIFLUOPERAZINE] | 500 |
| O=Cc1ccc(-c2ccc(-c3cccs3)s2)s1 | 0.7 |
| NCc1ccc(-c2ccc(-c3cccs3)s2)s1 | 7 |
| c1csc(-c2ccc(-c3cccs3)s2)c1 | 10 |
| O=Cc1ccc(-c2ccc(-c3ccc(C=O)s3)s2)s1 | 0.3 |
